Results from US20220088007A1 (priority 2010, published 2022).
Where two headings read alike, the source gives them in different places.

Tests used:
[1] = Example 1 (NB-233): single-dose crossover food-effect study of NB 8/90 trilayer tablets, plasma pharmacokinetics; details: for increase in Cmax: high-fat conditions compared to fasted conditions; for Cmax between high-fat and fasted conditions (in words): 90% CIs within 80% to 125% range
[2] = Example 2 (NB-236): steady-state food-effect extension study of NB 8/90 tablets, plasma pharmacokinetics
Description: A phase I, open label, steady-state study was performed to assess the plasma pharmacokinetics of NB tablets under fed and fasted conditions. An extension of the study allowed for the evaluation of the effect of food on the pharmacokinetics of NB tablets.
Days 1-31 of the study were devoted to the primary investigation of metoprolol pharmacokinetics in the context of steady-state dosing with NB tablets. Subjects (n=18) received a metoprolol 50 mg IR tablet on Days 1 and 31. NB was dose escalated every week from a single NB 8/90 tablet per day on Day 3 to a maximum dose of NB 32/360 (two NB 8/90 tablets BID) starting on Day 24. In the clinic setting (Days 1-3 and 27-31), standardized meals were provided before dosing and pharmacokinetic sampling. These meals were moderate in fat and caloric content. Subjects were instructed to take study medication with food during the outpatient (Days 4-26) phase of the study.
Subjects enrolling in the optional extension continued BID dosing administration (with moderate meals) through Day 32. […] The evening dose on Day 33, study medication was given with food (“moderate” meal). For Day 34, subjects received their morning dose under the opposite condition from what they received on the morning of Day 33. […] For purposes of studying the effects of food, the comparisons were between Day 30 pharmacokinetics (“moderate” meal) and the fasted and high-fat meal conditions administered on Day 33 and Day 34.

[3] = Example 3 (NB-239 vs NB-237): single dose NB 8/90 tablets, moderate-fat, moderate-calorie meal vs fasted, cross-study comparison; details: for Cmax: single dose two NB 8/90 tablets
[4] = in vivo
[5] = human, in vivo
clinical [6] = details: both, human
clinical [7] = details: human
[8] = fed moderate-fat meal, mean ± SD
[9] = fed moderate-calorie, moderate-fat meal, mean ± SD
[10] = fed (high-fat meal), arithmetic mean ± SD

## Oc1ccc2c3c1O[C@H]1[C@H](O)CC[C@@]4(O)[C@@H](C2)N(CC2CC2)CC[C@]314 [6β-naltrexol]
[1]
  increase in Cmax: 52%
[2]; steady state, two NB 8/90 tablets
  effect of food (moderate-fat or high-fat meal) on exposure relative to the fasted state (in words): neither meal type appeared to affect

## CC(NC(C)(C)C)C(=O)c1cccc(Cl)c1 (stereo not shown) [Bupropion, bupropion]
[3]; fasted, mean ± SD
  AUC0-t: 1.49601 ± 0.32304 µg·h/mL
  AUC0-∞: 1.57493 ± 0.34649 µg·h/mL
  t1/2: 19.83 ± 3.24 h
  Cmax: 156 ± 36.9 ng/mL
[3]; [8]
  AUC0-∞: 1.38485 ± 0.33019 µg·h/mL
[3]; [9]
  Cmax: 154 ± 55.4 ng/mL
[4]; both, human
  AUC0-t Fed to Fasted % MR: 139.50%
  t1/2 apparent terminal elimination half-life: 20.44 h
[4]
  apparent terminal elimination t1/2, fed vs fasted conditions (in words): similar
  median Tmax, fed vs fasted conditions (in words): one hour shorter
[1]; fasted, arithmetic mean ± SD
  AUC0-t: 1.55091 ± 0.54908 µg·h/mL
[5]
  AUC0-t % MR, fed (moderate-fat) to fasted: 91.55%
Clinical [6]; in vivo
  AUC(0-inf): 1.62 ± 0.574 µg·h/mL
  Cmax: 161 ± 52.1 ng/mL
[2]; both, human, in vivo
  Cmin: 41.6 ± 10.4 ng/mL
[2]; both, human, in vivo, po
  AUC0-t: 0.965 ± 0.249 µg·h/mL
[2]; both, human, in vivo, po, Tmax
  Tmax: 1.99 h
[2]; steady state, morning dose two NB 8/90 tablets fasted, Day 33 or 34, mean ± SD
  Cmax: 131 ± 38.2 ng/mL
[2]; steady state, morning dose two NB 8/90 tablets fed high-fat meal, Day 33 or 34, mean ± SD
  Cmax: 167 ± 43.4 ng/mL
[2]; steady state, two NB 8/90 tablets BID, fed moderate meal, Day 30, mean ± SD
  Cmax: 156 ± 52.5 ng/mL
Clinical [7]; in vivo
  Tmax: 2.07 h

## O=C1CC[C@@]2(O)[C@H]3Cc4ccc(O)c5c4[C@@]2(CCN3CC2CC2)[C@H]1O5 [Naltrexone, naltrexone]
[3]; [8]
  AUC0-t: 0.01341 ± 0.00693 µg·h/mL
  AUC0-∞: 0.01363 ± 0.00715 µg·h/mL
[3]; fed moderate-fat meal, median (minimum, maximum)
  Tmax: 2.00 (0.75, 6.00) hr
[3]; [9]
  Cmax: 2.65 ± 1.18 ng/mL
[1]; fasted, arithmetic mean ± SD
  AUC0-t: 0.00798 ± 0.00404 µg·h/mL
[1]; [10]
  AUC0-t: 0.01642 ± 0.0087 µg·h/mL
  AUC0-∞: 0.01665 ± 0.0087 µg·h/mL
[1]; fed (high-fat meal), median (minimum, maximum)
  Tmax: 2.00 (0.75, 6.00) hr
[1]; fed vs fasted
  median Tmax, fed vs fasted conditions (in words): similar
[1]; high-fat fed vs fasted
  AUC0-t Fed to Fasted % MR: 211.50%
[1]; plasma, single dose two NB 8/90 tablets, fed (high-fat meal), arithmetic mean ± SD
  Cmax: 4.00 ± 2.52 ng/mL
Clinical [6]; plasma, oral
  AUC(0-inf): 0.00839 ± 0.00426 µg·h/mL
  Tmax: 2 h
[2]; both, human, plasma, po, fasted, Day 33 or 34, mean ± SD
  AUC0-t: 0.00707 ± 0.00288 µg·h/mL
[2]; both, human, plasma, po, fed high-fat meal, Day 33 or 34, mean ± SD
  AUC0-t: 0.0118 ± 0.00468 µg·h/mL
[2]; both, human, plasma, po, fed moderate meal, Day 30, mean ± SD
  AUC0-t: 0.0117 ± 0.00445 µg·h/mL
[2]; both, human, plasma, po, Cmax, steady state, morning dose two NB 8/90 tablets fasted, Day 33 or 34, mean ± SD
  Cmax: 1.47 ± 0.71 ng/mL
[2]; both, human, plasma, po, Cmax, steady state, morning dose two NB 8/90 tablets fed high-fat meal, Day 33 or 34, mean ± SD
  Cmax: 2.84 ± 1.53 ng/mL
[2]; both, human, plasma, po, Cmax, steady state, two NB 8/90 tablets BID, fed moderate meal, Day 30, mean ± SD
  Cmax: 2.6 ± 1.02 ng/mL
[2]; both, human, plasma, po, Tmax, fasted, Day 33 or 34, median (minimum, maximum)
  Tmax: 0.75 h
[2]; both, human, plasma, po, Tmax, fed moderate meal, Day 30, median (minimum, maximum)
  Tmax: 2 h
[2]; fasted, Day 33 or 34, mean ± SD
  Cmin: 0.172 ± 0.0758 ng/mL
[2]; fed high-fat meal, Day 33 or 34, mean ± SD
  Cmin: 0.159 ± 0.0895 ng/mL
[2]; fed high-fat meal, Day 33 or 34, median (minimum, maximum)
  Tmax: 3.00 (1.25, 6.00) hr
[2]; fed moderate meal, Day 30, mean ± SD
  Cmin: 0.195 ± 0.105 ng/mL
[2]; high-fat, high-calorie meal
  lower Cmin versus the fasted condition: 12%
[2]; moderate-fat, moderate-calorie meal
  higher Cmin versus the fasted condition: 10%
[2]; steady state
  Cmin % MR, high-fat fed to fasted: 88.39%
  Cmin % MR, high-fat to moderate-fat: 80.15%
  Cmin % MR, moderate-fat fed to fasted: 110.04%
[2]; steady state, morning dose
  effect of changing meal from moderate-fat, moderate-calorie to high-fat, high-calorie (in words): no effect
Clinical [7]; plasma, oral
  AUC0-t: 0.0083 ± 0.00641 µg·h/mL
  AUC(0-inf): 0.00855 ± 0.00646 µg·h/mL
  Cmax: 1.34 ± 0.763 ng/mL
  Tmax: 1.27 h

## CC(NC(C)(C)C)C(O)c1cccc(Cl)c1 (stereo not shown) [erythrohydrobupropion]
[1]
  Cmax between high-fat and fasted conditions (in words): comparable

## C[C@H]1NC(C)(C)CO[C@]1(O)c1cccc(Cl)c1 [hydroxybupropion]
[1]
  Cmax between high-fat and fasted conditions (in words): comparable

## C[C@H](NC(C)(C)C)[C@@H](O)c1cccc(Cl)c1 [threohydrobupropion]
[1]
  increase in Cmax: 26%
